Reference: US20180099931A1 (AbbVie S.à.r.l., priority 2016, published 2018)
Like-named read-outs stand apart in the source and are kept apart here.

Target: T1, F508delCFTR (Homo sapiens, UniProt P13569, DEL508-508)
T1 construct: expressed in transfected cells; host or cells: CFBE41o- human lung-derived epithelial cells (CFBE4lo-F508delCFTR-HRP), doxycycline-inducible
Assay: Cell Surface Expression-Horse Radish Peroxidase (CSE-HRP) Assay;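 on Maximum % activity (with co-corrector): co-corrector and positive control are both the same reference corrector at 2 µM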;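 on Maximum % activity (without co-corrector): percent of the 2 µM on-plate positive control corrector response above DMSO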
Assay type: cell-based
Conditions: for Maximum % activity (with co-corrector) / Emax: maximum at any tested concentration, normalized to on-plate positive control; for Emax: read-out: Maximum % activity (without co-corrector)

[1] = CSE-HRP, test compound without co-corrector, read-out: EC50 (without co-corrector)
[2] = CSE-HRP, with co-corrector (2 μM of 3-[(2R,4R)-4-({[1-(2,2-difluoro-1,3-benzodioxol-5-yl)cyclopropyl]carbonyl}amino)-7-methoxy-3,4-dihydro-2H-chromen-2-yl]benzoic acid), read-out: EC50 (with co-corrector)
[3] = CSE-HRP, with co-corrector (2 μM)

T1 sequence (P13569 with tags, fused parts or gaps DEL508-508): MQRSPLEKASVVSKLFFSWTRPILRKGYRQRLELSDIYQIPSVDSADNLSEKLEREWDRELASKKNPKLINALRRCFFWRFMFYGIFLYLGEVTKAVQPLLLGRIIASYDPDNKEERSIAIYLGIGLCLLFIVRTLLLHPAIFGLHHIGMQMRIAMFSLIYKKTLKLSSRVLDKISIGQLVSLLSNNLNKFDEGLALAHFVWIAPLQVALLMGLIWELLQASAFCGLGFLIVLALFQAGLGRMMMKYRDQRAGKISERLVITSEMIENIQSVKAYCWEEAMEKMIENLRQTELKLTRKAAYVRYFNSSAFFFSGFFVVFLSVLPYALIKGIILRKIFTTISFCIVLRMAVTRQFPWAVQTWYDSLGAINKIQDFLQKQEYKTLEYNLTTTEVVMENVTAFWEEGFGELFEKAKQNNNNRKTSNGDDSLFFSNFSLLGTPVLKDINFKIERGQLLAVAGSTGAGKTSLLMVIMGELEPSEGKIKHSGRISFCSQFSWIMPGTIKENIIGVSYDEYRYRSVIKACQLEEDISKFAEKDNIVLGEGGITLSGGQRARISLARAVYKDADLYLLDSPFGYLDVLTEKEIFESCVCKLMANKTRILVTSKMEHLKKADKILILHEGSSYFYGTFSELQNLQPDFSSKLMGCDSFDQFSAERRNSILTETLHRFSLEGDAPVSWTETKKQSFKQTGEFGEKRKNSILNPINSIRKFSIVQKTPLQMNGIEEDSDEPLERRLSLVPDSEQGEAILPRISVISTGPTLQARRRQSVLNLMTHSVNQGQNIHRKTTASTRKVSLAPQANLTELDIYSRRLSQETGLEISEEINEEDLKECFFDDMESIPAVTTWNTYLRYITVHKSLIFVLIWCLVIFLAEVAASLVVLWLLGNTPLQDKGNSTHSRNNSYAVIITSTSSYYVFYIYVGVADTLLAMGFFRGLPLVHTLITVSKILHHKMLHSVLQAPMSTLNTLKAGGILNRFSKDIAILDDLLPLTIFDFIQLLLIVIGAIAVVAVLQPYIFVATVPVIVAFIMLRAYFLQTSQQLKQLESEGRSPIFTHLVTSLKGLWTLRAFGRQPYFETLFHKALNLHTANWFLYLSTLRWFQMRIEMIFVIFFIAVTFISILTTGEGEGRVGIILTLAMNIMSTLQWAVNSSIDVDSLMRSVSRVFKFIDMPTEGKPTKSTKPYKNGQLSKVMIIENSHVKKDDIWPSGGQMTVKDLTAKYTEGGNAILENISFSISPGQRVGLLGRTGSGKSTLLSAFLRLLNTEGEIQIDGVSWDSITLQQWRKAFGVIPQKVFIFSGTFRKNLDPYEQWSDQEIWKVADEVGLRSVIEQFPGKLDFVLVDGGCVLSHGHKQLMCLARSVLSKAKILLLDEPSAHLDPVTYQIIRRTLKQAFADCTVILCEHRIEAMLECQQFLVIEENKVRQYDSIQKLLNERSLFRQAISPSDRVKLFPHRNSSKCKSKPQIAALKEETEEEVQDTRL

| EC50 [1] | EC50 [2] | Maximum % activity (with co-corrector) [3] | Emax (CSE-HRP, without co-corrector) | Emax (test compound without co-corrector) | EC50 (test compound without co-corrector, read-out: EC50 (without co-corrector)) | Maximum % activity (with co-corrector) (with co-corrector (2 μM of 3-[(2R,4R)-4-({[1-(2,2-difluoro-1,3-benzodioxol-5-yl)cyclopropyl]carbonyl}amino)-7-methoxy-3,4-dihydro-2H-chromen-2-yl]benzoic acid)) | EC50 (with co-corrector (2 μM of 3-[(2R,4R)-4-({[1-(2,2-difluoro-1,3-benzodioxol-5-yl)cyclopropyl]carbonyl}amino)-7-methoxy-3,4-dihydro-2H-chromen-2-yl]benzoic acid), read-out: EC50 (with co-corrector)) | SMILES |
| --- | --- | --- | --- | --- | --- | --- | --- | --- |
|  |  |  |  | 100 to 200% | < 1000 nM | +++ (≥350) | < 1000 nM | COc1cccc(-c2cnc(OC)c(CN[C@H]3[C@H](C(C)(C)C)[C@@H](C(=O)O)N(C(=O)C4CCCCC4)[C@H]3c3ccccc3)c2)c1 [Example II-341, (2S,3S,4S,5S)-3-(tert-butyl)-1-(cyclohexanecarbonyl)-4-(((2-methoxy-5-(3-methoxyphenyl)pyridin-3-yl)methyl)amino)-5-phenylpyrrolidine-2-carboxylic acid] |
| 1000 to 10000 nM | 1000 to 10000 nM | +++ (≥350) | < 100% |  |  |  |  | Cc1cc(C(F)(F)F)cc(N[C@@H]2[C@@H](C)[C@H](C(=O)O)N(C(=O)N(C(C)C)C(C)C)[C@@H]2c2ccccc2)n1 [II-11] |
| 1000 to 10000 nM | 1000 to 10000 nM | +++ (≥350) | > 200% |  |  |  |  | COc1ccc(C(F)(F)F)cc1CN[C@H]1[C@H](C(C)(C)C)[C@@H](C(=O)O)N(C(=O)[C@H](OC)c2ccccc2)[C@H]1c1ccccc1N(C)C [II-62] |
| 1000 to 10000 nM | 1000 to 10000 nM | +++ (≥350) | > 200% |  |  |  |  | COc1ccc(Cl)cc1CN[C@H]1[C@H](C(C)(C)C)[C@@H](C(=O)O)N(C(=O)[C@H](OC)c2ccccc2)[C@H]1c1ccccc1N(C)C [II-63] |
| > 10000 nM | 1000 to 10000 nM | ++ (≥150 and <350) | < 100% |  |  |  |  | COc1ccc(C(F)(F)F)cc1CN[C@@H]1[C@@H](C(C)(C)C)[C@H](C(=O)O)N(C(=O)[C@@H](OC)c2ccccc2)[C@@H]1c1ccccc1 [II-64] |
| 1000 to 10000 nM | 1000 to 10000 nM | +++ (≥350) | 100 to 200% |  |  |  |  | COc1cc(C(F)(F)F)ccc1CN[C@H]1[C@H](C(C)(C)C)[C@@H](C(=O)O)N(C(=O)[C@@H](OC)c2ccccc2)[C@H]1c1ccccc1 [II-65] |
| 1000 to 10000 nM | 1000 to 10000 nM | +++ (≥350) | 100 to 200% |  |  |  |  | COc1cc(C(F)(F)F)ccc1CN[C@H]1[C@H](C(C)(C)C)[C@@H](C(=O)O)N(C(=O)[C@H]2CCCCO2)[C@H]1c1ccccc1 [II-81] |
| 1000 to 10000 nM | 1000 to 10000 nM | +++ (≥350) | 100 to 200% |  |  |  |  | COc1cc(C(F)(F)F)ccc1CN[C@@H]1[C@@H](C(C)(C)C)[C@H](C(=O)O)N(C(=O)[C@@H]2CCCCO2)[C@@H]1c1ccccc1 [II-82] |
| 1000 to 10000 nM | < 1000 nM | +++ (≥350) | > 200% |  |  |  |  | COc1ncc(C(F)(F)F)cc1CN[C@H]1[C@H](C(C)(C)C)[C@@H](C(=O)O)N(C(=O)[C@H](OC)c2ccccc2)[C@H]1c1ccccc1 [II-83] |
| 1000 to 10000 nM | 1000 to 10000 nM | +++ (≥350) | 100 to 200% |  |  |  |  | COc1cc(C(F)(F)F)ccc1CN[C@H]1[C@H](C(C)(C)C)[C@@H](C(=O)O)N(C(=O)[C@H](OC)c2ccccc2)[C@H]1c1cccnc1OC [II-84] |
| 1000 to 10000 nM | 1000 to 10000 nM | +++ (≥350) | 100 to 200% |  |  |  |  | COc1cc(C(F)(F)F)ccc1CN[C@H]1[C@H](C(C)(C)C)[C@@H](C(=O)O)N(C(=O)[C@H](OC)c2ccccc2)[C@H]1c1cccnc1N(C)C [II-87] |

Second part, the compound before the results:

| SMILES | EC50 [1] | EC50 [2] | Maximum % activity (with co-corrector) [3] | Emax (CSE-HRP, without co-corrector) | Emax (test compound without co-corrector) | EC50 (test compound without co-corrector, read-out: EC50 (without co-corrector)) | Maximum % activity (with co-corrector) (with co-corrector (2 μM of 3-[(2R,4R)-4-({[1-(2,2-difluoro-1,3-benzodioxol-5-yl)cyclopropyl]carbonyl}amino)-7-methoxy-3,4-dihydro-2H-chromen-2-yl]benzoic acid)) | EC50 (with co-corrector (2 μM of 3-[(2R,4R)-4-({[1-(2,2-difluoro-1,3-benzodioxol-5-yl)cyclopropyl]carbonyl}amino)-7-methoxy-3,4-dihydro-2H-chromen-2-yl]benzoic acid), read-out: EC50 (with co-corrector)) |
| --- | --- | --- | --- | --- | --- | --- | --- | --- |
| COc1ncc(C2CCC2)cc1CN[C@H]1[C@H](C(C)(C)C)[C@@H](C(=O)O)N(C(=O)[C@@H]2CCCCO2)[C@H]1c1ccccc1C1CC1 [Example I-296] | 1000 to 10000 nM | 1000 to 10000 nM | +++ (≥350) | > 200% |  |  |  |  |
| CCc1ccccc1[C@H]1[C@@H](NCc2cc(C3CCC3)cnc2OC)[C@H](C(C)(C)C)[C@@H](C(=O)O)N1C(=O)[C@@H]1CCCCO1 [Example I-297] | 1000 to 10000 nM | < 1000 nM | +++ (≥350) | > 200% |  |  |  |  |
| COc1ncc(C(F)(F)F)cc1CN[C@H]1[C@H](C(C)(C)C)[C@@H](C(=O)O)N(C(=O)[C@@H]2CCCCO2)[C@H]1c1cccc2c1OCC2 [Example I-298] | 1000 to 10000 nM | 1000 to 10000 nM | +++ (≥350) | 100 to 200% |  |  |  |  |
| COc1ccc(C(F)(F)F)cc1CN[C@H]1[C@H](C(C)(C)C)[C@@H](C(=O)O)N(C(=O)[C@@H]2CCCCO2)[C@H]1c1cccc2c1OCC2 [Example I-299] | 1000 to 10000 nM | 1000 to 10000 nM | +++ (≥350) | 100 to 200% |  |  |  |  |
| COc1cc(C(F)(F)F)ccc1CN[C@H]1[C@H](C(C)(C)C)[C@@H](C(=O)O)N(C(=O)[C@@H]2CCCCO2)[C@H]1c1cccc2c1OCC2 [Example I-300] | 1000 to 10000 nM | 1000 to 10000 nM | +++ (≥350) | > 200% |  |  |  |  |
| COc1ncc(C2CCC2)cc1CN[C@H]1[C@H](C(C)(C)C)[C@@H](C(=O)O)N(C(=O)[C@@H]2CCCCO2)[C@H]1c1cccc2c1OCC2 [Example I-301] | 1000 to 10000 nM | 1000 to 10000 nM | +++ (≥350) | > 200% |  |  |  |  |
| COc1cc2c(cc1CN[C@H]1[C@H](C(C)(C)C)[C@@H](C(=O)O)N(C(=O)[C@@H]3CCCCO3)[C@H]1c1cccc3c1OCC3)CCCC2 [Example I-302] | 1000 to 10000 nM | 1000 to 10000 nM | +++ (≥350) | 100 to 200% |  |  |  |  |
| COc1cccc(S(=O)(=O)N2[C@H](C(=O)O)[C@@H](C(C)(C)C)[C@H](NCc3cc(C4CCC4)cnc3OC)[C@@H]2c2ccccc2C(C)C)n1 [Example I-303] | 1000 to 10000 nM | 1000 to 10000 nM | +++ (≥350) | < 100% |  |  |  |  |
| COc1ccc(C2(C)CCC2)cc1CN[C@H]1[C@H](C(C)(C)C)[C@@H](C(=O)O)N(C(=O)[C@@H]2CCCCO2)[C@H]1c1ccccc1C(C)C [Example I-304] | < 1000 nM | < 1000 nM | +++ (≥350) | > 200% |  |  |  |  |
| CC(C)c1ccccc1[C@H]1[C@@H](NCc2cccc3c2OC(C)(C)C3)[C@H](C(C)(C)C)[C@@H](C(=O)O)N1C(=O)[C@@H]1CCCO1 [Example I-305] | 1000 to 10000 nM | 1000 to 10000 nM | +++ (≥350) | 100 to 200% |  |  |  |  |
| CC(C)c1ccccc1[C@H]1[C@@H](NCc2cccc3c2OC(C)(C)C3)[C@H](C(C)(C)C)[C@@H](C(=O)O)N1C(=O)[C@@H]1CCCCO1 [Example I-306] | < 1000 nM | < 1000 nM | +++ (≥350) | > 200% |  |  |  |  |
| COc1ncc(C2CCC2)cc1CN[C@H]1[C@H](C(C)(C)C)[C@@H](C(=O)O)N(C(=O)C2CCCCC2)[C@H]1c1cccc2c1OC(C)(C)C2 [Example I-307] | < 1000 nM | < 1000 nM | +++ (≥350) | > 200% |  |  |  |  |
| COc1ccc(Cl)c2c1CN([C@H]1[C@H](C(C)(C)C)[C@@H](C(=O)O)N(C(=O)[C@@H]3CCCCO3)[C@H]1c1ccccc1C(C)C)C2 [Example I-308] | 1000 to 10000 nM | < 1000 nM | +++ (≥350) | < 100% |  |  |  |  |
| COc1ccc(C(F)(F)F)cc1OCCN[C@H]1[C@H](C(C)(C)C)[C@@H](C(=O)O)N(C(=O)OC(C)C)[C@H]1c1cccnc1OC(C)C [Example I-309] | 1000 to 10000 nM | 1000 to 10000 nM | +++ (≥350) | 100 to 200% |  |  |  |  |
| COc1ccc(C(C)(C)C)cc1CN[C@H]1[C@H](C(C)(C)C)[C@@H](C(=O)O)N(C(=O)C2CCCCC2)[C@H]1c1ccccc1O [Example I-310] | 1000 to 10000 nM | < 1000 nM | +++ (≥350) | > 200% |  |  |  |  |
